Measurements as given in US20230286923A1 (INIPHARM, INC., priority 2020, published 2023).

Biological target: T1, HSD17B13 enzyme (Homo sapiens (Human), UniProt Q7Z5P4)
Assay: NADH detection assay (fluorescence based LTB3 assay) for HSD17B13 activity
Format: biochemical
Conditions: substrate 25 µM LTB3, 3 mM NAD+, 125 nM enzyme
Method: The fluorescence based Leukotriene B3 (LTB3) assay monitors the fluorescence of NADH, which is generated from NAD+ during the dehydrogenation of the substrate LTB3. The reactions were performed in a 384-well plates (Greiner; #655076) in a 20 µl reaction volume containing the following reagents (final concentrations): 25 µM LTB3 (Cayman; #20109); 3 mM NAD^+ (Sigma; #N0623); 125 nM HSD17B13 enzyme (in-house; E. coli expressed His-tagged, purified, soluble protein); 1 M potassium phosphate buffer, pH 7.4; and 1% DMSO. Reactions were initiated by co-addition of NAD+ and enzyme, and monitored for 1 hour at 26.5° C. Generation of NADH was measured as the fluorescence signal (Excitation at 340 nm and Emission at 445 nm) at 1 hour minus the baseline fluorescence at t=0. Fluorescence signals in the absence of LTB3 (negative control values), were subtracted from all values so that the results reflected substrate-dependent production of NADH. NADH standards were included to allow the conversion of relative fluorescence units into rates of enzyme activity. Enzyme activity in the presence of test compounds was expressed as a percentage of the uninhibited enzyme activity, and plotted versus inhibitor concentration. Non-linear regression was performed using a four-parameter logistic model and Microsoft Excel Solver software Ten concentrations of inhibitor were tested in duplicate (in the range of 30 µM - 2.5 nM), and two independent concentration response assays were performed.

T1 sequence (Q7Z5P4 20-300): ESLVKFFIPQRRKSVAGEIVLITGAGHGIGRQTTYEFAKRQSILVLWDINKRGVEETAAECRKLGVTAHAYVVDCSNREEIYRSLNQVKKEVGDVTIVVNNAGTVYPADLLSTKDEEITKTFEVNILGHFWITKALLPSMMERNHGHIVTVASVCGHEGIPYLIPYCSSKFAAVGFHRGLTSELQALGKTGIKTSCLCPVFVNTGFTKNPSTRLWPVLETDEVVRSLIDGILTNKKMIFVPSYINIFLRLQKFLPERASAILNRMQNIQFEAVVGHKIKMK

Q: Which IC50 does the source give for O=C(Nc1cccc2ncn(CC3CC3)c(=O)c12)c1ccc(S(=O)(=O)NC(=O)c2ccccc2)c(Cl)c1 [Example 14, 4-(N-benzoylsulfamoyl)-3-chloro-N-(3-(cyclopropylmethyl)-4-oxo-3,4-dihydroquinazolin-5-yl)benzamide] here?
A: 1000 to 5000 nM

Q: With COc1ccccc1CCn1cnc2cccc(NC(=O)c3cc(Cl)c(O)c(Cl)c3)c2c1=O [Example 33, 3,5-dichloro-4-hydroxy-N-(3-(2-methoxyphenethyl)-4-oxo-3,4-dihydroquinazolin-5-yl)benzamide] as the molecule, how does the IC50 read?
A: 1000 to 5000 nM

Q: With COc1ccccc1CCn1cnc2cccc(NC(=O)c3cc(Cl)c(O)c(C(C)C)c3)c2c1=O [Example 24, 3-chloro-4-hydroxy-5-isopropyl-N-(3-(2-methoxyphenethyl)-4-oxo-3,4-dihydroquinazolin-5-yl)benzamide] as the molecule, how does the IC50 read?
A: > 10000 nM

Q: With COc1ccccc1CCn1cnc2cccc(NC(=O)c3ccc(-c4cnn[nH]4)c(F)c3)c2c1=O [Example 26, 3-fluoro-N-(3-(2-methoxyphenethyl)-4-oxo-3,4-dihydroquinazolin-5-yl)-4-(1H-1,2,3-triazol-5-yl)benzamide] as the molecule, how does the IC50 read?
A: > 10000 nM

Q: With COc1ccccc1CCn1cnc2cccc(NC(=O)c3ccc(O)c(C(F)(F)F)c3)c2c1=O [Example 32, 4-hydroxy-N-(3-(2-methoxyphenethyl)-4-oxo-3,4-dihydroquinazolin-5-yl)-3-(trifluoromethyl)benzamide] as the molecule, how does the IC50 read?
A: ≤ 1000 nM

Biological target: T1, HSD17B13 enzyme
Assay: Estrone detection assay (LC/MS, conversion of estradiol to estrone) for HSD17B13 activity
Format: biochemical
Conditions: substrate 4 µM estradiol, 6 mM NAD+, 30 nM enzyme
Method: The liquid chromatography/mass spectrometry (LC/MS) estrone detection assay monitors the conversion of estradiol to estrone by HSD17B13. This assay was undertaken in a 96wp format (Eppendorf deep well Plate 96/500) in an 80 µl reaction volume containing: 4 µM of Estradiol (E2; Cayman; #10006315), 6 mM NAD^+ (Sigma; #N0623) and 30 nM HSD17B13 enzyme (in-house; E. coli expressed His-tagged, purified, soluble protein) in a reaction containing 1 M potassium phosphate buffer pH 7.4, with 0.5% vehicle (DMSO). Reactions were incubated for 2 hours at 26.5° C., and estradiol (E2) conversion to estrone (E1) was quantitated by LC-MS/MS based analyte detection for both E2 and E1 using LCMS grade reagents.
Reactions were terminated by the addition of two volumes of acetonitrile (MeCN; LCMS grade; CAS# 75/05/8) containing deuterated (D4)-E1 used as internal standard (Clear Synth; #CS-T-54273; 500 ng/mL final concentration). Samples were applied to pre-prepared Bond Elut-C18 extraction cartridges (3 mL; Agilent; #12102028), washed and eluted in MeCN. Eluates were dried under nitrogen and re-suspended in 60% methanol (LCMS grade methanol; CAS# 67/56/1) before submission for analysis. Aqueous linearity for E2 and E1 were included for quantification.
Analysis of samples was undertaken on a XBridge BEH C18 column (Waters; #186003033) using 0.1% Diethyl Amine in MeCN (mobile phase A; DEA CAS# 109-89-7) and 0.1% Diethyl Amine in milli-Q water (mobile phase B) in a 3 min gradient allowing 25%B. Analytes were detected in negative mode using MRM analysis, with E2 having a RT of 1.85 min and E1 having a RT of 2 min. Activity of the enzyme, in the absence of NAD^+, was used to evaluate specificity of conversion. Enzyme activity in the presence of test samples was expressed as a percentage of the uninhibited enzyme activity, and plotted versus inhibitor concentration. Non-linear regression was performed using a four-parameter logistic model and GraphPad Prism software (GraphPad Software, La Jolla, CA). All assessments were undertaken in duplicate evaluations and pooled during extraction process and subsequently injected as duplicates for LC-MS/MS analysis.

Q: O=C(Nc1cccc2ncn(CC3CC3)c(=O)c12)c1ccc(S(=O)(=O)NC(=O)c2ccccc2)c(Cl)c1 [Example 14, 4-(N-benzoylsulfamoyl)-3-chloro-N-(3-(cyclopropylmethyl)-4-oxo-3,4-dihydroquinazolin-5-yl)benzamide] was tested. Which IC50 did it give?
A: 1000 to 10000 nM

Q: With COc1ccccc1CCn1cnc2cccc(NC(=O)c3cc(Cl)c(O)c(Cl)c3)c2c1=O [Example 33, 3,5-dichloro-4-hydroxy-N-(3-(2-methoxyphenethyl)-4-oxo-3,4-dihydroquinazolin-5-yl)benzamide] as the molecule, how does the IC50 read?
A: 100 to 1000 nM

Q: For COc1ccccc1CCn1cnc2cccc(NC(=O)c3cc(Cl)c(O)c(C(C)C)c3)c2c1=O [Example 24, 3-chloro-4-hydroxy-5-isopropyl-N-(3-(2-methoxyphenethyl)-4-oxo-3,4-dihydroquinazolin-5-yl)benzamide], which IC50 is on record?
A: > 10000 nM

Q: With COc1ccccc1CCn1cnc2cccc(NC(=O)c3ccc(-c4cnn[nH]4)c(F)c3)c2c1=O [Example 26, 3-fluoro-N-(3-(2-methoxyphenethyl)-4-oxo-3,4-dihydroquinazolin-5-yl)-4-(1H-1,2,3-triazol-5-yl)benzamide] as the molecule, how does the IC50 read?
A: 1000 to 10000 nM

Q: COc1ccccc1CCn1cnc2cccc(NC(=O)c3ccc(O)c(C(F)(F)F)c3)c2c1=O [Example 32, 4-hydroxy-N-(3-(2-methoxyphenethyl)-4-oxo-3,4-dihydroquinazolin-5-yl)-3-(trifluoromethyl)benzamide] was tested. Which IC50 did it give?
A: ≤ 100 nM

Q: O=C(Nc1cccc2ncn(Cc3cccc(F)c3)c(=O)c12)c1cc(C(F)(F)F)c(O)c(C(F)(F)F)n1 [Example 40, N-(3-(3-fluorobenzyl)-4-oxo-3,4-dihydroquinazolin-5-yl)-5-hydroxy-4,6-bis(trifluoromethyl)picolinamide] was tested. Which IC50 did it give?
A: 100 to 1000 nM

Q: CS(=O)(=O)c1ccccc1Cn1cnc2cccc(NC(=O)c3cc(F)c(O)c(C#N)c3)c2c1=O [Example 62, 3-cyano-5-fluoro-4-hydroxy-N-(3-(2-(methylsulfonyl)benzyl)-4-oxo-3,4-dihydroquinazolin-5-yl)benzamide] was tested. Which IC50 did it give?
A: 100 to 1000 nM

Q: With O=C(Nc1cccc2ncn(Cc3ccccc3C(F)(F)F)c(=O)c12)c1cc(Cl)c(O)c(C(F)(F)F)n1 [Example 55, 4-chloro-5-hydroxy-N-(4-oxo-3-(2-(trifluoromethyl)benzyl)-3,4-dihydroquinazolin-5-yl)-6-(trifluoromethyl)picolinamide] as the molecule, how does the IC50 read?
A: 100 to 1000 nM

Q: Which IC50 does the source give for C[C@@H](c1cccc(F)c1)n1cnc2cccc(NC(=O)c3cc(Cl)c(O)c(C(F)(F)F)n3)c2c1=O [Example 43, (S)-4-chloro-N-(3-(1-(3-fluorophenyl)ethyl)-4-oxo-3,4-dihydroquinazolin-5-yl)-5-hydroxy-6-(trifluoromethyl)picolinamide] here?
A: 100 to 1000 nM

Q: CC(C)(C)CCn1cnc2cccc(NC(=O)c3ccc(-c4nnn[nH]4)c(Cl)c3)c2c1=O [Example 13, 3-chloro-N-(3-(3,3-dimethylbutyl)-4-oxo-3,4-dihydroquinazolin-5-yl)-4-(1H-tetrazol-5-yl)benzamide] was tested. Which IC50 did it give?
A: 1000 to 10000 nM

Q: N#Cc1ccccc1Cn1cnc2cccc(NC(=O)c3cc(F)c(O)c(C#N)c3)c2c1=O [Example 60, 3-cyano-N-{3-[(2-cyanophenyl)methyl]-4-oxo-3,4-dihydroquinazolin-5-yl}-5-fluoro-4-hydroxybenzamide] was tested. Which IC50 did it give?
A: ≤ 100 nM

Q: N#Cc1cc(C(=O)Nc2cccc3ncn(Cc4ccc(OC(F)(F)F)cc4)c(=O)c23)cc(F)c1O [Example 53, 3-cyano-5-fluoro-4-hydroxy-N-(4-oxo-3-(4-(trifluoromethoxy)benzyl)-3,4-dihydroquinazolin-5-yl)benzamide] was tested. Which IC50 did it give?
A: 100 to 1000 nM

Q: O=C(Nc1cccc2ncn(Cc3nncs3)c(=O)c12)c1cc(Cl)c(O)c(C(F)(F)F)c1 [Example 36, N-(3-((1,3,4-thiadiazol-2-yl)methyl)-4-oxo-3,4-dihydroquinazolin-5-yl)-3-chloro-4-hydroxy-5-(trifluoromethyl)benzamide] was tested. Which IC50 did it give?
A: 1000 to 10000 nM

Q: How did the IC50 turn out when O=C(Nc1cccc2ncn(Cc3ccc(C(F)(F)F)cc3)c(=O)c12)c1cc(Cl)c(O)c(C(F)(F)F)n1 [Example 51, 4-chloro-5-hydroxy-N-(4-oxo-3-(4-(trifluoromethyl)benzyl)-3,4-dihydroquinazolin-5-yl)-6-(trifluoromethyl)picolinamide] was run?
A: 1000 to 10000 nM

Q: Which IC50 does the source give for O=C(Nc1cccc2ncn(Cc3ccccc3F)c(=O)c12)c1cc(Cl)c(O)c(C(F)(F)F)n1 [Example 45, 4-chloro-N-(3-(2-fluorobenzyl)-4-oxo-3,4-dihydroquinazolin-5-yl)-5-hydroxy-6-(trifluoromethyl)picolinamide] here?
A: 100 to 1000 nM

Q: How did the IC50 turn out when N#Cc1cc(C(=O)Nc2cccc3ncn(Cc4cccc(F)c4)c(=O)c23)cc(Cl)c1O [Example 49, 3-chloro-5-cyano-N-(3-(3-fluorobenzyl)-4-oxo-3,4-dihydroquinazolin-5-yl)-4-hydroxybenzamide] was run?
A: 100 to 1000 nM

Q: For N#Cc1cc(C(=O)Nc2cccc3ncn(Cc4cccc(OC(F)(F)F)c4)c(=O)c23)cc(F)c1O [Example 56, 3-cyano-5-fluoro-4-hydroxy-N-(4-oxo-3-(3-(trifluoromethoxy)benzyl)-3,4-dihydroquinazolin-5-yl)benzamide], which IC50 is on record?
A: 100 to 1000 nM

Q: With N#Cc1cc(C(=O)Nc2cccc3ncn(Cc4ccccc4F)c(=O)c23)cc(Cl)c1O [Example 37, 3-chloro-5-cyano-N-(3-(2-fluorobenzyl)-4-oxo-3,4-dihydroquinazolin-5-yl)-4-hydroxybenzamide] as the molecule, how does the IC50 read?
A: 100 to 1000 nM

Q: With O=C(Nc1cccc2ncn(Cc3cocn3)c(=O)c12)c1cc(Cl)c(O)c(C(F)(F)F)c1 [Example 42] as the molecule, how does the IC50 read?
A: 1000 to 10000 nM

Q: O=C(Nc1cccc2ncn(Cc3ccc(F)cc3)c(=O)c12)c1cc(Cl)c(O)c(C(F)(F)F)c1 [Example 35, 3-chloro-N-(3-(4-fluorobenzyl)-4-oxo-3,4-dihydroquinazolin-5-yl)-4-hydroxy-5-(trifluoromethyl)benzamide] was tested. Which IC50 did it give?
A: 100 to 1000 nM

Q: C[C@@H](c1cccc(F)c1)n1cnc2cccc(NC(=O)c3cc(Cl)c(O)c(C#N)c3)c2c1=O [Example 38, (S)-3-chloro-5-cyano-N-(3-(1-(3-fluorophenyl)ethyl)-4-oxo-3,4-dihydroquinazolin-5-yl)-4-hydroxybenzamide] was tested. Which IC50 did it give?
A: 100 to 1000 nM

Q: How did the IC50 turn out when NC(=O)c1cc(C(=O)Nc2cccc3ncn(Cc4cccc(C(F)(F)F)c4)c(=O)c23)cc(F)c1O [Example 54, 5-fluoro-4-hydroxy-N1-(4-oxo-3-(3-(trifluoromethyl)benzyl)-3,4-dihydroquinazolin-5-yl)isophthalamide] was run?
A: 1000 to 10000 nM

Q: O=C(Nc1cccc2ncn(Cc3ccc(C(F)(F)F)cc3)c(=O)c12)c1cc(Cl)c(O)c(C(F)(F)F)c1 [Example 46, 3-chloro-4-hydroxy-N-(4-oxo-3-(4-(trifluoromethyl)benzyl)-3,4-dihydroquinazolin-5-yl)-5-(trifluoromethyl)benzamide] was tested. Which IC50 did it give?
A: 100 to 1000 nM

Q: O=C(Nc1cccc2ncn(Cc3cccc(F)c3)c(=O)c12)c1cc(Cl)c(O)c(=O)[nH]1 [Example 65, 4-chloro-N-(3-(3-fluorobenzyl)-4-oxo-3,4-dihydroquinazolin-5-yl)-5-hydroxy-6-oxo-1,6-dihydropyridine-2-carboxamide] was tested. Which IC50 did it give?
A: > 10000 nM

Q: Which IC50 does the source give for N#Cc1cc(C(=O)Nc2cccc3ncn(Cc4cccc(OC(F)(F)F)c4)c(=O)c23)cc(Cl)c1O [Example 48, 3-chloro-5-cyano-4-hydroxy-N-(4-oxo-3-(3-(trifluoromethoxy)benzyl)-3,4-dihydroquinazolin-5-yl)benzamide] here?
A: 100 to 1000 nM
